Biological target: Citron kinase (Homo sapiens (Human), UniProt O14578)
Assay: Radiometric citron kinase assay (Eurofins Cat #16-040KP)
Type: biochemical
Conditions: mean of at least two independent assays; read-out: Radiometric CitK IC50
Source text: In some embodiments, the step of contacting the sample with the compound comprises administering the compound to a subject (e.g., a subject) suffering from cancer. Methods of determining kinase inhibition are well known in the art. For example, kinase activity of an enzyme and the inhibitory capacity of a test compound can be determined by measuring enzyme specific phosphorylation of a substrate. Commercial assays and kits can be employed. For example, kinase inhibition can be determined using a radiometric binding assay, such as using KinaseProfiler™ technology (Eurofins Discovery). This assay method directly detects product formation without the use of modified substrates or coupling enzymes. Test compounds are incubated with kinase, substrate, required cofactors and radioisotope labeled ATP. Following incubation, unreacted radioactive ATP is removed by washing and incorporation of the radiolabeled phosphate into the kinase substrate is assayed to detect phosphoryltransferase activity, which is directly proportional to the amount of phosphorylated substrate. Inhibition of the kinase by a kinase inhibitor prevents phosphorylation of the substrate and thereby limits the incorporation of radiolabeled phosphate. Such an assay is compatible with a microwell assay format, allowing simultaneous determination of IC50 of multiple compounds.
Compounds were screened for biochemical kinase activity (Eurofins Discovery, France) using one of two assays. […] All values in Table 1 are the mean of at least two independent assays.

Chain of Citron kinase (O14578 whole entry): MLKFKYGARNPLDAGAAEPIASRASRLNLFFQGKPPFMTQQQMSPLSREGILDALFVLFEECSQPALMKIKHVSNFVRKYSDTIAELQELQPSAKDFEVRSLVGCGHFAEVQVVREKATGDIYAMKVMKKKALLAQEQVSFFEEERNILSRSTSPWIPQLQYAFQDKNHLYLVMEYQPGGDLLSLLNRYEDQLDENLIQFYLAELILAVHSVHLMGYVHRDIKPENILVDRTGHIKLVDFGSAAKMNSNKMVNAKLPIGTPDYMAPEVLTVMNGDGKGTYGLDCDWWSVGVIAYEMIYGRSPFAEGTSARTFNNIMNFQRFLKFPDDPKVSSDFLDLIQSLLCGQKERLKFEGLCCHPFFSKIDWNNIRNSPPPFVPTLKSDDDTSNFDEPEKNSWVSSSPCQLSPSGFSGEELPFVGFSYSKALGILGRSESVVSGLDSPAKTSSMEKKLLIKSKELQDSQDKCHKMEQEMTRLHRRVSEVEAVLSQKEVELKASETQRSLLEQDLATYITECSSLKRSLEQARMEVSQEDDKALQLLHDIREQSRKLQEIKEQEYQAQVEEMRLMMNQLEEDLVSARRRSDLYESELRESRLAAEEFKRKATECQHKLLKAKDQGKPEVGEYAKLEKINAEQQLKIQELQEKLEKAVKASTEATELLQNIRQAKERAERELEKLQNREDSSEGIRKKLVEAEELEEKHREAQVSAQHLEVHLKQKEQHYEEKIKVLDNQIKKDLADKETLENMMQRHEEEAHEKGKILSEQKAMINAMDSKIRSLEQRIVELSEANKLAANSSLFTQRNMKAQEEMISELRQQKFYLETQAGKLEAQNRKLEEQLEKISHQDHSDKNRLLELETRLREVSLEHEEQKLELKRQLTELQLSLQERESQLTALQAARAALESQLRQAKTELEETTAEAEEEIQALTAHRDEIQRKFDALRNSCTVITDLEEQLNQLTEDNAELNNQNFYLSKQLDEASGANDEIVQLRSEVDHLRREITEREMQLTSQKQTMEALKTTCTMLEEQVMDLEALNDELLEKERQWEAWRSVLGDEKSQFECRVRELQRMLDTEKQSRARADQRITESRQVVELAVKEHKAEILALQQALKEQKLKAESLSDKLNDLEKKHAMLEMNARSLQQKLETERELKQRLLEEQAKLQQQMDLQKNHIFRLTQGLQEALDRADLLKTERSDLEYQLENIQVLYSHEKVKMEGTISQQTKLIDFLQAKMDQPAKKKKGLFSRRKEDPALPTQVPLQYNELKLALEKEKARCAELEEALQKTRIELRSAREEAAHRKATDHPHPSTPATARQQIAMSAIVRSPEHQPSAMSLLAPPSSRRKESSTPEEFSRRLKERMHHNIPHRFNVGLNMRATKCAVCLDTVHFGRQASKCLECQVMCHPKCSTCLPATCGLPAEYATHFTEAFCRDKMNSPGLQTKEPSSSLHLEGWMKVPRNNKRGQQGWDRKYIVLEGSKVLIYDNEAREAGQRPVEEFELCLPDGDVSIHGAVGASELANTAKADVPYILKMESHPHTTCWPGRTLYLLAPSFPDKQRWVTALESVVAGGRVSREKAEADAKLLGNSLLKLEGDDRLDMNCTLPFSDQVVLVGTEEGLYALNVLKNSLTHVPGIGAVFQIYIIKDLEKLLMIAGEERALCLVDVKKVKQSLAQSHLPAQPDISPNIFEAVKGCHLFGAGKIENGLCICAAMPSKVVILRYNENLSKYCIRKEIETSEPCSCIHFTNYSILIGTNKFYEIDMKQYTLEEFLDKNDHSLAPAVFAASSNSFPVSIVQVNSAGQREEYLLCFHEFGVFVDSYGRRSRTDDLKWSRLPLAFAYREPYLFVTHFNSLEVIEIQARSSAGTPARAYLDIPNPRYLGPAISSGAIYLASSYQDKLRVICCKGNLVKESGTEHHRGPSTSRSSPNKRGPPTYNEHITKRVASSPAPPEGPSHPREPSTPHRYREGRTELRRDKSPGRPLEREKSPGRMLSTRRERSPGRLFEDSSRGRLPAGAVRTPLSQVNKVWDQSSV

| SMILES | IC50 [nM] |
| --- | --- |
| Cc1cc2c(-c3ccc(NC(=O)[C@H](N)Cc4ccccc4)cc3)ccnc2[nH]1 [Compound F-92, (2R)-2-Amino-N-[4-(2-methyl-1H-pyrrolo[2,3-b]pyridin-4-yl)phenyl]-3-phenyl-propanamide] | 415 |
| COc1cc(NC(=O)[C@H](N)CC(C)(C)C)cnc1-c1ccnc2[nH]c(C)cc12 [Compound F-172, (2R)-2-Amino-N-[5-methoxy-6-(2-methyl-1H-pyrrolo[2,3-b]pyridin-4-yl)-3-pyridyl]-4,4-dimethyl-pentanamide] | 3000 |
| Cc1cc2c(-c3csc(NC(=O)[C@H](N)CC(C)C)n3)ccnc2[nH]1 [Compound F-116, (2R)-2-Amino-4-methyl-N-[4-(2-methyl-1H-pyrrolo[2,3-b]pyridin-4-yl)thiazol-2-yl]pentanamide] | 368 |
| Cc1cc(NC(=O)[C@H](N)C(C)(C)C)ccc1-c1ccnc2[nH]c(C(F)(F)F)cc12 [Compound F-100, (2R)-2-Amino-3,3-dimethyl-N-[3-methyl-4-[2-(trifluoromethyl)-1H-pyrrolo[2,3-b]pyridin-4-yl]phenyl]butanamide] | 380 |
| CCC[C@@H](N)C(=O)Nc1ccc(-c2ccnc3[nH]ccc23)cc1 [Compound F-14, (2R)-2-Amino-N-[4-(1H-pyrrolo[2,3-b]pyridin-4-yl)phenyl]pentanamide] | 69.6 |
| Cc1cc(NC(=O)[C@H](N)CC(C)C)c(F)cc1-c1ccnc2[nH]ccc12 [Compound F-73, (2R)-2-Amino-N-[2-fluoro-5-methyl-4-(1H-pyrrolo[2,3-b]pyridin-4-yl)phenyl]-4-methyl-pentanamide] | 694 |
| CN[C@H](CC(C)C)C(=O)Nc1ccc(-c2ccnc3[nH]c(C)cc23)cc1 [Compound F-94, (2R)-4-Methyl-2-(methylamino)-N-[4-(2-methyl-1H-pyrrolo[2,3-b]pyridin-4-yl)phenyl]pentanamide] | 43.7 |
| Cc1cc2c(-c3csc(NC(=O)[C@@H](N)C(C)(C)C)n3)ccnc2[nH]1 [Compound F-113, (2S)-2-Amino-3,3-dimethyl-N-[4-(2-methyl-1H-pyrrolo[2,3-b]pyridin-4-yl)thiazol-2-yl]butanamide] | 111 |
| CC[C@@H](C)[C@@H](N)C(=O)Nc1ccc(-c2ccnc3[nH]ccc23)cc1 [Compound F-11, (2R,3R)-2-Amino-3-methyl-N-[4-(1H-pyrrolo[2,3-b]pyridin-4-yl)phenyl]pentanamide] | 315 |
| Cc1cc2c(-c3ccc(NC(=O)[C@H](N)CC(C)(C)C)cc3)ccnc2[nH]1 [Compound F-52, (2R)-2-Amino-4,4-dimethyl-N-[4-(2-methyl-1H-pyrrolo[2,3-b]pyridin-4-yl)phenyl]pentanamide] | 9.1 |

The remaining compounds from weak to strong by IC50, led by results:

| IC50 [nM] | SMILES |
| --- | --- |
| 37 | COc1cc(NC(=O)[C@H](N)CC(C)(C)C)ccc1-c1ccnc2[nH]ccc12 [Compound F-166, (2R)-2-Amino-N-[3-methoxy-4-(1H-pyrrolo[2,3-b]pyridin-4-yl)phenyl]-4,4-dimethyl-Pentanamide] |
| 35.1 | CC(C)(C)[C@@H](N)C(=O)Nc1ccc(-c2ccnc3[nH]c(C4CC4)cc23)cc1 [Compound F-54, (2R)-2-Amino-N-[4-(2-cyclopropyl-1H-pyrrolo[2,3-b]pyridin-4-yl)phenyl]-3,3-dimethyl-butanamide] |
| 30.4 | Cc1cc(NC(=O)[C@H](N)CC(C)C)ccc1-c1ccnc2[nH]c(C(F)(F)F)cc12 [Compound F-98, (2R)-2-Amino-4-methyl-N-[3-methyl-4-[2-(trifluoromethyl)-1H-pyrrolo[2,3-b]pyridin-4-yl]phenyl]pentanamide] |
| 11.7 | Cc1cc(NC(=O)[C@H](N)CC(C)(C)C)ccc1-c1ccnc2[nH]c(C(F)F)cc12 [Compound F-102, (2R)-2-Amino-N-[4-[2-(difluoromethyl)-1H-pyrrolo[2,3-b]pyridin-4-yl]-3-methyl-phenyl]-4,4-dimethyl-pentanamide] |
| 10 | Cc1cc2c(-c3ccc(NC(=O)[C@H](N)CC(C)(C)C)c(F)c3C)ccnc2[nH]1 [Compound F-156, (2R)-2-Amino-N-[2-fluoro-3-methyl-4-(2-methyl-1H-pyrrolo[2,3-b]pyridin-4-yl)phenyl]-4,4-dimethyl-pentanamide] |

Source: patent US20250243196A1, “CITRON KINASE INHIBITORS” (The Cleveland Clinic Foundation, priority 2021, published 2025)
